Experimental data taken from publication PMC6925768, “Determination of Anlotinib, a Tyrosine Kinase Inhibitor, in Rat Plasma by UHPLC-MS/MS and Its Application to a Pharmacokinetic Study” (Journal of Analytical Methods in Chemistry, 2019).
Read-outs that look alike come from different tables or passages of the source.

Experiments:
[1] = Stability of anlotinib in rat plasma under various storage conditions; assay type: in vitro ADME; details: n = 3; for Short-term stability, Mean / Short-term stability, RE: room temperature 12 hours; for Freeze/thaw stability, Mean / Freeze/thaw stability, RE: three freeze-thaw cycles −80°C to room temperature; for Long-term stability, Mean / Long-term stability, RE: −80°C 30 days
Protocol: (§1) The stability of three concentrations (0.25, 5, 40 ng/mL) of QCs was analyzed under typical storage conditions: (1) rat plasma stored at room temperature for 12 hours (short-term stability); (2) rat plasma stored at −80°C for 30 days (long-term stability); and (3) under three freeze-thaw cycles from −80°C to room temperature. The stability of stock solution of anlotinib and IS was analyzed under room temperature for 24 hours as well as at 4°C for 2 weeks.

[2] = test system: advanced non-small-cell lung cancer; design: method as in PMID 30098152; details: advanced non-small-cell lung cancer after second-line or further treatment; cited from earlier work
[3] = design: method as in PMID 29620050; details: reported literature, different dose; cited from earlier work
[4] = Pharmacokinetic study in rats after single oral administration; assay type: in vivo, Sprague Dawley rats; details: 10 mg/kg
Protocol: Male Sprague Dawley rats weighing 250 ± 20 g were purchased from the Shanghai Laboratory Animal Co. (Shanghai, China). All experimental rats were housed in a standard cage with a humidity of 50 ± 20%, a constant temperature of 23–25°C, and a light/dark cycle condition for at least 7 days before the pharmacokinetic study. After 8 h fasting (animals had free access to water), the rats received a single oral administration with anlotinib at a dosage of 10 mg/kg. All animal experiments in present study were approved by the Institutional Animal Care and Use Committee of Wenzhou Medical University (Wenzhou, China).
Blood samples (150 μL) were collected from the tail vein before the dose and at 0.17, 0.75, 1, 1.5, 2, 3, 4, 5, 7, 9, 12, 24, and 48 h after the oral administration of anlotinib. These series of blood samples were transferred into 1.5 mL heparinized tubes. The rat blood samples were immediately centrifuged for 10 min at 5,000 rpm at 4°C, and then the separation of plasma was stored at −80°C until analysis. The noncompartmental statistical model was performed to calculate the pharmacokinetic parameters of anlotinib by Drug and Statistics 3.0 software.

[5] = Stability of stock solutions; assay type: physicochemical; details: stock solution in methanol; for Stability of stock solution, long-term test: 4°C for 2 weeks; for Stability of stock solution, short-term test: room temperature for 24 hours
Protocol: as §1

[6] = test system: refractory advanced non-small-cell lung cancer; design: method as in PMID 29438373; details: patients with refractory advanced non-small-cell lung cancer; cited from earlier work
[7] = test system: human tumor xenograft models; design: method as in PMID 27716285; details: especially colon, ovarian, liver, renal, glioma, non-small-cell lung; cited from earlier work
[8] = male, Sprague Dawley, rat plasma, n = 6
[9] = male, Sprague Dawley, rat, plasma, po, n = 6

COc1cc2c(Oc3ccc4[nH]c(C)cc4c3F)ccnc2cc1OCC1(N)CC1 [anlotinib, Anlotinib]
Short-term stability, Mean ([1]; 0.25 ng/ml in rat plasma): 0.26 ng/mL
Short-term stability, RE ([1]; 0.25 ng/ml in rat plasma): 4.65%
Freeze/thaw stability, Mean ([1]; 0.25 ng/ml in rat plasma): 0.26 ng/mL
Freeze/thaw stability, RE ([1]; 0.25 ng/ml in rat plasma): 2.03%
Long-term stability, Mean ([1]; 0.25 ng/ml in rat plasma): 0.25 ng/mL
Long-term stability, RE ([1]; 0.25 ng/ml in rat plasma): −1.55%
Autosampler stability, Mean ([1]; 0.25 ng/ml): 0.24 ng/mL
Autosampler stability, RE ([1]; 0.25 ng/ml): −2.27%
Short-term stability, Mean ([1]; 5 ng/ml in rat plasma): 5.21 ng/mL
Short-term stability, RE ([1]; 5 ng/ml in rat plasma): 4.27%
Freeze/thaw stability, Mean ([1]; 5 ng/ml in rat plasma): 4.94 ng/mL
Freeze/thaw stability, RE ([1]; 5 ng/ml in rat plasma): −1.13%
Long-term stability, Mean ([1]; 5 ng/ml in rat plasma): 5.19 ng/mL
Long-term stability, RE ([1]; 5 ng/ml in rat plasma): 3.75%
Autosampler stability, Mean ([1]; 5 ng/ml): 5.14 ng/mL
Autosampler stability, RE ([1]; 5 ng/ml): 2.75%
Short-term stability, Mean ([1]; 40 ng/ml in rat plasma): 41.64 ng/mL
Short-term stability, RE ([1]; 40 ng/ml in rat plasma): 4.1%
Freeze/thaw stability, Mean ([1]; 40 ng/ml in rat plasma): 40.55 ng/mL
Freeze/thaw stability, RE ([1]; 40 ng/ml in rat plasma): 1.39%
Long-term stability, Mean ([1]; 40 ng/ml in rat plasma): 41.19 ng/mL
Long-term stability, RE ([1]; 40 ng/ml in rat plasma): 2.97%
Autosampler stability, Mean ([1]; 40 ng/ml): 41.14 ng/mL
Autosampler stability, RE ([1]; 40 ng/ml): 2.85%
Overall survival and progression-free survival [2]: improve overall survival (OS) and progression-free survival (PFS)
t1/2 [3]: 5.7 ± 3.1 h
AUC(0-inf) [4, 8]: 186 ± 49.2 ng·h/mL
CL/F [4, 8]: 942 mL/min/kg
MRT last ([4]; male, Sprague Dawley, rat plasma, n = 6, read-out: MRT(0-t)): 8.98 ± 1.45 h
MRT inf ([4]; male, Sprague Dawley, rat plasma, n = 6, read-out: MRT(0-∞)): 9.2 ± 1.21 h
half-life ([4]; male, Sprague Dawley, rat plasma, n = 6, read-out: t 1/2 z (converted)): 5.05 ± 0.62 h
Cmax [4, 9]: 24.2 ± 4.31 ng/mL
Tmax [4, 9]: 3.33 h
AUC0-t ([4]; male, Sprague Dawley, rat, plasma, po, n = 6, read-out: AUC0-t): 184 ± 49.8 ng·h/mL
AUC0-t ([4]; rat plasma, n = 6): 184.431 ± 49.827 ng·h/mL
C max ([4]; rat plasma, n = 6): 24.219 ± 4.311 ng/mL
T max ([4]; rat plasma, n = 6): 3.333 ± 0.816 h
V/F ([4]; rat plasma, n = 6): 406.029 ± 72.748 L/kg
Stability of stock solution, long-term test [5]: 95.96%
Stability of stock solution, short-term test [5]: 98.96%
Progression-free survival versus placebo [6]: obvious progression-free survival (PFS) benefits
Toxicity tolerance [6]: good toxicity tolerance
Activity against human tumor xenograft models [7]: broad activity

Cc1ccc(NC(=O)c2ccc(CN3CCN(C)CC3)cc2)cc1Nc1nccc(-c2cccnc2)n1 [IS, Imatinib]
Stability of stock solution, long-term test [5]: 98.73%
Stability of stock solution, short-term test [5]: 99.35%
